Where a name gives a salt, the structure may show the parent alone.
Key:
[1] = system: rats on a choline-deficient L-amino acid-defined diet; conditions: cited from earlier work
[2] = system: COPD macrophages and alveolar macrophages from cigarette smoke-exposed mice; conditions: cited from earlier work
[3] = system: NRF2 wild-type and KO mice; conditions: after administration, NRF2 wild-type vs KO mice; cited from earlier work
[4] = system: rats in a cerebral ischemia-reperfusion model; conditions: cited from earlier work
[5] = system: NQO1 specific enzyme activity in BEAS-2B cells (marker for NRF2 activation); assay: BEAS-2B NQO1 MTT Assay; assay type: cell-based; conditions: Homo sapiens, BEAS-2B, 48 h, NQO1 specific activity induction, 48 hours with compound
How it was run: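 BEAS-2B cells were plated at 250,000 cells/mL and treated after overnight culture with compound for 48 h at 37° C, 5% CO2. NQO1 activity in crude lysates was read kinetically as MTT reduction at 570 nm over 30 min. pEC50 comes from ΔOD/min versus log concentration with a 3-parameter fit.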

Row | SMILES | EC50 [5] [nM] | further results
1 | O=C(NCc1ccccn1)Nc1nnc(-c2ccco2)o1 [NK-252] | – | progression of histologic abnormalities, especially hepatic fibrosis [1]: significantly attenuated progression
2 | C[S+]([O-])CCCCN=C=S (stereo not shown) [Sulforaphane] | – | expression of Macrophage Receptor with Collagenous structure (MARCO) ([2]; COPD macrophages and alveolar macrophages from cigarette smoke-exposed mice): increases the expression of Macrophage Receptor with Collagenous structure (MARCO); bacterial phagocytosis (Pseudomonas aeruginosa, non-typable Haemophilus influenzae) and bacterial clearance ([2]; ex vivo and in vivo): improving in these cells bacterial phagocytosis
3 | CC(C)(C)c1cc(O)ccc1O [tBHQ, tert-butylhydroquinone] | – | cortical glutathione levels [3]: increased in NRF2 wild-type but not KO mice; cortical damage [4]: reduced cortical damage
4 | Cc1c(-c2cnccn2)ssc1=S [oltipraz] | – | progression of histologic abnormalities, especially hepatic fibrosis [1]: significantly attenuated progression
5 | CCn1nnc2c(F)c([C@H](c3cc(CN4C[C@@H](C)Cc5ccc(C(F)(F)F)cc5S4(=O)=O)c(Cl)s3)C(C)(C)C(=O)O)ccc21 [Example 57, (R)-3-(5-Chloro-4-(((S)-4-methyl-1,1-dioxido-8-(trifluoromethyl)-4,5-dihydrobenzo[f][1,2]thiazepin-2(3H)-yl)methyl)thiophen-2-yl)-3-(1-ethyl-4-fluoro-1H-benzo[d][1,2,3]triazol-5-yl)-2,2-dimethylpropanoic Acid] | < 1 | –
6 | CCn1nnc2c(F)c([C@@H](c3cc(CN4C[C@@H](C)Cc5ccc(C(F)(F)F)cc5S4(=O)=O)c(Cl)s3)C(C)(C)C(=O)O)ccc21 [Example 43, (S)-3-(5-Chloro-4-(((S)-4-methyl-1,1-dioxido-8-(trifluoromethyl)-4,5-dihydrobenzo[f][1,2]thiazepin-2(3H)-yl)methyl)thiophen-2-yl)-3-(1-ethyl-4-fluoro-1H-benzo[d][1,2,3]triazol-5-yl)-2,2-dimethylpropanoic Acid] | 10 to 100 | –
7 | CC[C@H]1Cc2ccc(C(F)(F)F)cc2S(=O)(=O)N(Cc2cc([C@@H](c3ccc4c(nnn4CC)c3C)C(C)(C)C(=O)O)sc2C)C1 [Example 55, (S)-3-(4-(((S)-4-Ethyl-1,1-dioxido-8-(trifluoromethyl)-4,5-dihydrobenzo[f][1,2]thiazepin-2(3H)-yl)methyl)-5-methylthiophen-2-yl)-3-(1-ethyl-4-methyl-1H-benzo[d][1,2,3]triazol-5-yl)-2,2-dimethylpropanoic Acid] | < 1 | –
8 | CC[C@@H]1CN(Cc2cc([C@H](CCc3cn(CC)nn3)C(C)(C)C(=O)O)sc2C)S(=O)(=O)c2ccccc2O1 [Example 64, (R)-3-(4-(((R)-4-Ethyl-1,1-dioxido-3,4-dihydro-2H-benzo[b][1,4,5]oxathiazepin-2-yl)methyl)-5-methylthiophen-2-yl)-5-(1-ethyl-1H-1,2,3-triazol-4-yl)-2,2-dimethylpentanoic Acid] | < 1 | –
9 | CC[C@@H]1CN(Cc2cc([C@@H](c3ccc4c(nnn4CC)c3C)C(C)(C)C(=O)Nc3nnn[nH]3)sc2C)S(=O)(=O)c2ccccc2O1 [Example 65, (S)-3-(4-(((R)-4-Ethyl-1,1-dioxido-3,4-dihydro-2H-benzo[b][1,4,5]oxathiazepin-2-yl)methyl)-5-methylthiophen-2-yl)-3-(1-ethyl-4-methyl-1H-benzo[d][1,2,3]triazol-5-yl)-2,2-dimethyl-N-(1H-tetrazol-5-yl)propanamide, 0.10Formic Acid Salt] | 10 to 100 | –
10 | CC[C@@H]1CN(Cc2cc([C@@H](c3ccc4c(nnn4CC)c3C)C(C)(C)C(=O)O)sc2Cl)S(=O)(=O)c2cnccc2O1 [Example 56, (S)-3-(5-Chloro-4-(((R)-4-ethyl-1,1-dioxido-3,4-dihydro-2H-pyrido[4,3-b][1,4,5]oxathiazepin-2-yl)methyl)thiophen-2-yl)-3-(1-ethyl-4-methyl-1H-benzo[d][1,2,3]triazol-5-yl)-2,2-dimethylpropanoic Acid] | < 1 | –
11 | CC[C@@H]1CN(Cc2cc([C@@H](c3ccc4c(nnn4CC)c3C)C(C)(C)C(=O)O)sc2C)S(=O)(=O)c2cnccc2O1 [Example 9, (S)-3-(4-(((R)-4-Ethyl-1,1-dioxido-3,4-dihydro-2H-pyrido[4,3-b][1,4,5]oxathiazepin-2-yl)methyl)-5-methylthiophen-2-yl)-3-(1-ethyl-4-methyl-1H-benzo[d][1,2,3]triazol-5-yl)-2,2-dimethylpropanoic Acid] | < 1 | –
